From publication PMC11292009, “Mapping protein binding sites by photoreactive fragment pharmacophores” (Communications Chemistry, 2024)
Several values for one entry are separate records, joined by “and”; a condition that tells them apart may be missing. Equal values may be shown once.

Columns and labels:
[1] = tested on: PANC-1 cells; assay: MTT cell viability assay, PANC-1; format: cell-based, human; details: for cell viability: replicates
Excerpt: (§1) Pancreatic cancer cell lines PANC-1 (cat. no. CRL-1469), SW1990 (cat. no. CRL-2172) were obtained from ATCC (American Type Culture Collection). Genetically modified isogeneic colon cancer cell lines SW48-PAR and SW48-G12D were obtained from Horizon Discovery Ltd. PANC-1 (human pancreatic cancer, KRas^G12D), SW1990 (human pancreatic cancer, KRas^G12D), SW48-PAR (human colon cancer; parental cell line KRas^wt), and SW48-G12D (human colon cancer; heterozygous knockin of the KRas^G12D activating mutation) cancer cell lines were cultured in Roswell Park Memorial Institute Medium (RPMI; Biosera, Nuaille, France), supplemented with 10% heat-inactivated Fetal Bovine Serum (FBS; Biosera), and with 1% Penicillin/Streptomycin (Biosera). Cells were cultured in sterile T75 flasks with ventilation cap (Sarstedt, Nümbrecht, Germany) at 37 °C in a humidified atmosphere with 5% CO2 in ESCO CelCulture Incubator (ESCO, Friedberg, Germany). Manipulations with the cells were performed in biosafety cabinet (laminar) ESCO Sentinel Gold class II model AC2-4E8 (ESCO).
(§2) After standard harvesting of the cells by trypsin-EDTA (Biosera), 7 × 10^3 cells per well depending on the cell line, were seeded in serum-containing growth medium to 96-well plates and incubated. After 24 h, cells were treated with various concentrations of fragments (32 nM–100 μM), dissolved in serum-containing medium, and incubated under standard conditions. Control wells were treated with medium. Final concentration of serum was 2.5%, final concentration of DMSO was 0.2%. Treatment was for 72 h continuously.
(§3) Afterwards, MTT assay was performed in order to determine cell viability, by adding 20 μL of MTT solution (5 mg/mL in PBS) to each well and after 2 h of incubation at 37 °C, the supernatant was removed. The formazan crystals were dissolved in 100 μL of a 1:1 solution of DMSO (Sigma-Aldrich):EtOH (Molar Chemicals) and the absorbance was measured after 15 min at λ = 570 nm by using a microplate reader (BioTek 800TS, Agilent, Santa Clara, CA, USA). The IC50 values of the fragments were calculated using GraphPad Prism 6 (GraphPad Software, San Diego, CA, USA). The experiments were done in triplicate, and each experiment was repeated two times.

[2] = tested on: SW1990 cells; assay: MTT cell viability assay, SW1990; format: cell-based, human; details: for cell viability: replicates, in % (unit assumed)
Excerpt: as §1, §2, §3

**Q.** How did the IC50 ([1]; Homo sapiens, read-out: IC50, antiproliferative activity, PANC-1, MTT, 72 h) turn out when Cc1ncc(CO)c(CNC(=O)CCC2(C)N=N2)c1O [PhP072, Cc1ncc(CO)c(c1O)CNC(=O)CCC2(C)N=N2] was run?
**A.** 22.6 µM

**Q.** And the cell viability ([1]; PANC-1, [PhP072] 3.2e-8 M, in % (unit assumed))?
**A.** 94.1678 and 97.1333 and 95.7988 and 102.516 and 102.977 and 106.78

**Q.** What about the cell viability ([1]; PANC-1, [PhP072] 1.6e-7 M) of the same molecule?
**A.** 92.8333 and 84.2333 and 97.1333 and 102.977 (2×) and 103.899

**Q.** What about the cell viability ([1]; PANC-1, [PhP072] 8e-7 M) of the same molecule?
**A.** 87.6436 and 92.0919 and 90.4609 and 96.2933 (2×) and 94.7953

**Q.** And the cell viability ([1]; PANC-1, [PhP072] 4e-6 M, in % (unit assumed))?
**A.** 82.1574 and 83.0471 and 79.785 and 89.6098 and 90.0707 and 84.5396

**Q.** What about the cell viability ([1]; PANC-1, [PhP072] 2e-5 M, in % (unit assumed)) of the same molecule?
**A.** 72.9643 and 73.7057 and 70.7401 and 83.3872 and 78.8931 and 79.2388

**Q.** What about the cell viability ([1]; PANC-1, [PhP072] 0.0001 M) of the same molecule?
**A.** 57.9884 and 55.9125 and 55.7642 and 57.9207 and 64.7194 (2×)

**Q.** And the IC50 ([2]; Homo sapiens, read-out: IC50, antiproliferative activity, SW1990, MTT, 72 h)?
**A.** 17.2 µM

**Q.** What about the cell viability ([2]; SW1990, [PhP072] 3.2e-8 M) of the same molecule?
**A.** 101.695 and 98.3609 and 102.528 and 107.265 and 99.8137 and 96.5538

**Q.** What about the cell viability ([2]; SW1990, [PhP072] 1.6e-7 M) of the same molecule?
**A.** 103.195 and 101.49 and 102.515 and 96.4606

**Q.** What about the cell viability ([2]; SW1990, [PhP072] 8e-7 M) of the same molecule?
**A.** 103.528 and 101.528 and 95.5272 and 94.039 and 99.4411 and 93.387

**Q.** And the cell viability ([2]; SW1990, [PhP072] 4e-6 M)?
**A.** 101.861 and 97.8608 and 97.1941 and 99.9069 and 97.2989 and 95.6224

**Q.** What about the cell viability ([2]; SW1990, [PhP072] 2e-5 M) of the same molecule?
**A.** 90.5265 and 81.8586 and 88.0261 and 89.1956 and 90.8722 and 79.3227

**Q.** And the cell viability ([2]; SW1990, [PhP072] 0.0001 M)?
**A.** 62.6893 and 57.5219 and 66.8565 and 62.4641 and 63.023 and 60.1356
